Drawing on patent publication US12180193B2, “Accelerating fibrosarcoma protein degrading compounds and associated methods of use” (Arvinas Operations, Inc., priority 2020, dated 2024), this text covers DC50 and Dmax for ten molecules.

Where only a bound is given, the exact number is not on record here.

The target in one test is T1, BRAF V600E (Homo sapiens, UniProt P15056, V600E).
T1 construct: expressed in transfected cells
The experiment in a line: Cellular assay of target protein degradation, T-Rex 293 cells stably transfected with HA-BRAF_V600E (HA immunofluorescence, high content imaging). The settings on record: T-Rex 293 HA-BRAF V600E; for DC50: half maximal degradation, read-out: BRaf V600E DC50; for Dmax: maximum degradation observed. The test is classed as cell-based. An outline of the steps:
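24 h compound exposure, 1 μM–0.1 nM final, 0.1% DMSO, 37 °C; cells induced with 1 ng/mL doxycycline. PFA fix, Triton permeabilize, anti-HA overnight 4 °C, Hoechst/phalloidin counterstain. Output: DC50, Dmax as % control.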

The target in another test is T2, BRAF G466V (Homo sapiens, UniProt P15056, G466V).
T2 construct: expressed in transfected cells
The experiment in a line: Cellular assay of target protein degradation, T-Rex 293 cells stably transfected with HA-BRAF G466V (HA immunofluorescence, high content imaging). The conditions noted are these: T-Rex 293 HA-BRAF G466V; for DC50: half maximal degradation, read-out: BRaf G466V DC50; for Dmax: maximum degradation observed. The test is classed as cell-based. An outline of the steps: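 24 h compound, 30 nM–3 pM final, 0.1% DMSO, 37° C; HA-BRAF G466V induced with 0.75 ng/mL doxycycline. PFA fix, Triton perm, anti-HA + Alexa fluor secondary, Hoechst/phalloidin counterstain; imaging. DC50, Dmax (% of control).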

T1 sequence (P15056 whole entry V600E): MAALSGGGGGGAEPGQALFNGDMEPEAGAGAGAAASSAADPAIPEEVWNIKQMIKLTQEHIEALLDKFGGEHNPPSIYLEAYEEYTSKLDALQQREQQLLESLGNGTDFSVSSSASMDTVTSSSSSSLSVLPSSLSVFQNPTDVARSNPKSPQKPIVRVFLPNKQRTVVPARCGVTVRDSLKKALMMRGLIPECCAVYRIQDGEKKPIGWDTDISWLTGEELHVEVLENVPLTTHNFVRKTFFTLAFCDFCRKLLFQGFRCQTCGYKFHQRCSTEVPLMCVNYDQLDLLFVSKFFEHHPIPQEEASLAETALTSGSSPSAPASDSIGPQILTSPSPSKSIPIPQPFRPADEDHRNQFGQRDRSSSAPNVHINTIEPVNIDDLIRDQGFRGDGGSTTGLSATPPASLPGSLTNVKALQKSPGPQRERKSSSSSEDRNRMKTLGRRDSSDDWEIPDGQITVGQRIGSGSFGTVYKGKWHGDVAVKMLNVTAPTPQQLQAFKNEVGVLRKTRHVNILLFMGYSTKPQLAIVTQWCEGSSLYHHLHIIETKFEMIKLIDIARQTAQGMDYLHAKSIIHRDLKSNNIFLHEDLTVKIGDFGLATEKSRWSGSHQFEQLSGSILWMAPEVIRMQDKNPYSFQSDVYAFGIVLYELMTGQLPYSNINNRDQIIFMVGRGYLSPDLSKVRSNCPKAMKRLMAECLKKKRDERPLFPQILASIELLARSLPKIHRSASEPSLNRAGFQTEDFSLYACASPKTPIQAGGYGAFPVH
T2 sequence (P15056 whole entry G466V): as the sequence (P15056 whole entry V600E) above, with G466V, E600V counted along it

As usually defined, the DC50 is the midpoint of the concentration-degradation curve. In general, Dmax refers to the greatest extent of degradation seen. A higher Dmax goes with a fuller loss of target. Take `O=C1CC[C@@H](N2Cc3cc(C4CCN(CC5CCN(c6ccc(-c7cnc8[nH]cc(C(=O)c9c(F)ccc(NS(=O)(=O)N%10CCCC%10)c9F)c8c7)cc6)CC5)CC4)ccc3C2=O)C(=O)N1` [Compound 231, N-{3-[5-(4-{4-[(4-{2-[(3R)-2,6-dioxopiperidin-3-yl]-1-oxo-2,3-dihydro-1H-isoindol-5-yl}piperidin-1-yl)methyl]piperidin-1-yl}phenyl)-1H-pyrrolo[2,3-b]pyridine-3-carbonyl]-2,4-difluorophenyl}pyrrolidine-1-sulfonamide]: at BRAF V600E, the 50% degradation concentration (DC50) fell in the range of 5 to 50 nM and the Dmax was in the range of 35 to 70%. Besides, at BRAF G466V, the 50% degradation concentration (DC50) was in the range of 1 to 10 nM and the greatest degradation seen (Dmax) is greater than 70%.
The matching figures for `O=C1CC[C@H](N2Cc3cc(C4CCN(CC5CCN(c6ccc(-c7cnc8[nH]cc(C(=O)c9c(F)ccc(NS(=O)(=O)N%10CCC(F)(F)C%10)c9F)c8c7)cc6)CC5)CC4)ccc3C2=O)C(=O)N1` [Compound 232, N-{3-[5-(4-{4-[(4-{2-[(3S)-2,6-dioxopiperidin-3-yl]-1-oxo-2,3-dihydro-1H-isoindol-5-yl}piperidin-1-yl)methyl]piperidin-1-yl}phenyl)-1H-pyrrolo[2,3-b]pyridine-3-carbonyl]-2,4-difluorophenyl}-3,3-difluoropyrrolidine-1-sulfonamide]: 5 to 50 nM, 35 to 70%, 1 to 10 nM and greater than 70%.
In the case of `O=C1CC[C@@H](N2Cc3cc(C4CCN(CC5CCN(c6ccc(-c7cnc8[nH]cc(C(=O)c9c(F)ccc(NS(=O)(=O)N%10CCC(F)(F)C%10)c9F)c8c7)cc6)CC5)CC4)ccc3C2=O)C(=O)N1` [Compound 233, N-{3-[5-(4-{4-[(4-{2-[(3R)-2,6-dioxopiperidin-3-yl]-1-oxo-2,3-dihydro-1H-isoindol-5-yl}piperidin-1-yl)methyl]piperidin-1-yl}phenyl)-1H-pyrrolo[2,3-b]pyridine-3-carbonyl]-2,4-difluorophenyl}-3,3-difluoropyrrolidine-1-sulfonamide], on BRAF V600E, the 50% degradation concentration (DC50) lay within 5 to 50 nM and the Dmax was in the range of 35 to 70%. Also, at BRAF G466V, the 50% degradation concentration (DC50) fell in the range of 1 to 10 nM and the greatest degradation seen (Dmax) is greater than 70%.
The matching figures for `CCCS(=O)(=O)Nc1ccc(F)c(C(=O)c2c[nH]c3ncc(-c4ccc(N5CCC(CN6CCC(c7ccc8c(c7)CN([C@H]7CCC(=O)NC7=O)C8=O)CC6)CC5)cc4)cc23)c1F` [Compound 234, N-{3-[5-(4-{4-[(4-{2-[(3S)-2,6-dioxopiperidin-3-yl]-1-oxo-2,3-dihydro-1H-isoindol-5-yl}piperidin-1-yl)methyl]piperidin-1-yl}phenyl)-1H-pyrrolo[2,3-b]pyridine-3-carbonyl]-2,4-difluorophenyl}propane-1-sulfonamide]: 5 to 50 nM, 35 to 70%, less than 1 nM and greater than 70%.
The matching figures for `CCCS(=O)(=O)Nc1ccc(F)c(C(=O)c2c[nH]c3ncc(-c4ccc(N5CCC(CN6CCC(c7ccc8c(c7)CN([C@@H]7CCC(=O)NC7=O)C8=O)CC6)CC5)cc4)cc23)c1F` [Compound 235, N-{3-[5-(4-{4-[(4-{2-[(3R)-2,6-dioxopiperidin-3-yl]-1-oxo-2,3-dihydro-1H-isoindol-5-yl}piperidin-1-yl)methyl]piperidin-1-yl}phenyl)-1H-pyrrolo[2,3-b]pyridine-3-carbonyl]-2,4-difluorophenyl}propane-1-sulfonamide]: 5 to 50 nM, 35 to 70%, 1 to 10 nM and greater than 70%.
The matching figures for `CCCS(=O)(=O)Nc1ccc(F)c(C(=O)c2c[nH]c3ncc(-c4ccc(N5CCC(CN6CCC(c7ccc8c(c7)CN(C7CCC(=O)NC7=O)C8=O)CC6)CC5)cc4)cc23)c1F` (stereo not shown) [Compound 236, N-[3-(5-{4-[4-({4-[2-(2,6-dioxopiperidin-3-yl)-1-oxo-2,3-dihydro-1H-isoindol-5-yl]piperidin-1-yl}methyl)piperidin-1-yl]phenyl}-1H-pyrrolo[2,3-b]pyridine-3-carbonyl)-2,4-difluorophenyl]propane-1-sulfonamide]: 5 to 50 nM, 35 to 70%, less than 1 nM and greater than 70%.
Regarding `CCCS(=O)(=O)Nc1ccc(F)c(C(=O)c2c[nH]c3ncc(-c4ccc(N5CC6(CN(CC7CCN(c8cc9c(c(OC)c8)C(=O)N([C@H]8CCC(=O)NC8=O)C9)CC7)C6)C5)cc4)cc23)c1F` [Compound 237, N-{3-[5-(4-{6-[(1-{2-[(3S)-2,6-dioxopiperidin-3-yl]-7-methoxy-1-oxo-2,3-dihydro-1H-isoindol-5-yl}piperidin-4-yl)methyl]-2,6-diazaspiro[3.3]heptan-2-yl}phenyl)-1H-pyrrolo[2,3-b]pyridine-3-carbonyl]-2,4-difluorophenyl}propane-1-sulfonamide], at BRAF V600E, the half-maximal degradation concentration (DC50) lay in the range of 5 to 50 nM and the Dmax was 35 to 70%. Moreover, on BRAF G466V, the DC50 is less than 1 nM and the Dmax was greater than 70%.
The matching figures for `CCCS(=O)(=O)Nc1ccc(F)c(C(=O)c2c[nH]c3ncc(-c4ccc(N5CC6(CN(CC7CCN(c8cc9c(c(OC)c8)C(=O)N([C@@H]8CCC(=O)NC8=O)C9)CC7)C6)C5)cc4)cc23)c1F` [Compound 238, N-{3-[5-(4-{6-[(1-{2-[(3R)-2,6-dioxopiperidin-3-yl]-7-methoxy-1-oxo-2,3-dihydro-1H-isoindol-5-yl}piperidin-4-yl)methyl]-2,6-diazaspiro[3.3]heptan-2-yl}phenyl)-1H-pyrrolo[2,3-b]pyridine-3-carbonyl]-2,4-difluorophenyl}propane-1-sulfonamide]: 5 to 50 nM, 35 to 70%, 1 to 10 nM and greater than 70%.
On to `C[C@H]1C[C@@H](CN2CCC(c3ccc4c(c3)CN([C@H]3CCC(=O)NC3=O)C4=O)CC2)CCN1c1ccc(-c2cnc3[nH]cc(C(=O)c4c(F)ccc(NS(=O)(=O)N5CC[C@@H](F)C5)c4F)c3c2)cc1` [Compound 239, (3R)-N-[3-(5-{4-[(2S,4S)-4-[(4-{2-[(3S)-2,6-dioxopiperidin-3-yl]-1-oxo-2,3-dihydro-1H-isoindol-5-yl}piperidin-1-yl)methyl]-2-methylpiperidin-1-yl]phenyl}-1H-pyrrolo[2,3-b]pyridine-3-carbonyl)-2,4-difluorophenyl]-3-fluoropyrrolidine-1-sulfonamide], for which, on BRAF V600E, the half-maximal degradation concentration (DC50) lay within 5 to 50 nM and the Dmax was 35 to 70%. Further, at BRAF G466V, the half-maximal degradation concentration (DC50) lay within 1 to 10 nM and the Dmax was greater than 70%.
The matching figures for `C[C@H]1C[C@@H](CN2CCC(c3ccc4c(c3)CN([C@@H]3CCC(=O)NC3=O)C4=O)CC2)CCN1c1ccc(-c2cnc3[nH]cc(C(=O)c4c(F)ccc(NS(=O)(=O)N5CC[C@@H](F)C5)c4F)c3c2)cc1` [Compound 240, (3R)-N-[3-(5-{4-[(2S,4S)-4-[(4-{2-[(3R)-2,6-dioxopiperidin-3-yl]-1-oxo-2,3-dihydro-1H-isoindol-5-yl}piperidin-1-yl)methyl]-2-methylpiperidin-1-yl]phenyl}-1H-pyrrolo[2,3-b]pyridine-3-carbonyl)-2,4-difluorophenyl]-3-fluoropyrrolidine-1-sulfonamide]: 5 to 50 nM, 35 to 70%, 1 to 10 nM and greater than 70%.
